# “And” between values parts separate entries of the source, which are not always exact repeats. Identical values can stand only once.
# Key:
# [1] = Pharmacokinetic study in mice; type: in vivo, mice (male C57BL/6J); settings: for adverse effects during the study / level in blood circulation 24 h after treatment / AUCs: i.p.; for adverse effects during the study: 10 mg/kg single dose; for level in blood circulation 24 h after treatment / AUCs / concentration at 8 h / Cmax / Tmax / half-life: 10 mg/kg; for AUCs / Cmax / Tmax: blood; for concentration at 8 h / Cmax / Tmax / half-life: male, C57BL/6J, mouse, whole blood; for concentration at 8 h: read-out: average blood concentration 8 h after administration; for half-life: noncompartmental analysis, read-out: T ½ (converted)
# Protocol: In order to assess the efficacy potential of MYC degraders in animal models, pharmacokinetic studies were carried out in mice (Figure 6A,B). Following intraperitoneal (i.p.) administration of selected compounds, CSI86, CSI135, and CSI107 at 10 mg/kg, blood samples were collected at different time points until 24 h post-drug administration, and concentrations were determined via LC-MS/MS.
# Animals that were used for the study were male C57BL/6J (n = 7) at the age of 6–8 weeks (average weight = 20–25 g). Each PROTAC was administered at 10 mg/kg, and the dosing volume per animal was 200 μL. The vehicle for CSI86, CSI107, and […], respectively, was corn oil/10% DMSO, and the administration was i.p. CSI86 was also administered PO at the same dose using 0.5% carboxymethyl cellulose (CMC) as a vehicle in water. Whole blood from two control mice was used for the preparation of standard solutions.
# A serial tail bleeding protocol was performed for the collection of blood samples. Blood samples (10 μL) were collected at selected time points (15 min, 30 min, 1 h, 2 h, 4 h, 6 h, 8 h, and 24 h) in tubes containing 40 μL of sodium citrate (0.1 M, pH 4.5) and stored at −80 °C until the day of the analysis.
# For the calculation of T1/2, a noncompartmental pharmacokinetics analysis was used via the online application “Dash App Gallery Pharmacokinetics Calculator.” […]
# Characterization and Quantitative Analysis of PROTACs by Liquid Chromatography-Mass Spectrometry […]
# For detection and quantification of the PROTACs in medium and biological samples, LC-MS/MS methodologies were developed. Mass spectrometry was performed on a Triple Quad 5500 + LC-MS/MS system fitted with a TurboIonSpray source and a hybrid triple quadrupole/linear ion trap mass spectrometer. HPLC was performed using an Exion LC AB Sciex system with a temperature-controlled column compartment and an autosampler. A C8 column (SunFire 2.1 x 50 mm, 3.5 μm) (Waters, MA, USA) was used at a flow rate of 0.3 mL/min for the separation of the analytes of interest. The mobile phase consisted of A: 10% ACN, 90% water, 2 mM ammonium acetate, and 0.1% FA and B: 90% ACN, 10% water, 2 mM ammonium acetate, and 0.1% FA, the injection volume was 10 μL. Elution of CSI86 PROTAC was achieved by a gradient of solvent A – solvent B described as follows: 100% A (0.0 - 0.5 min), 20% A (1.0 – […]
# 3.0 min), 100% A (3.1 – 5.1 min).
# 1040.5, for the CSI86 PROTAC with exact mass of 1039 (g/mol). Elution of CSI107 PROTAC was achieved by a gradient of solvent A – solvent B described as follows: 80% A (0.0 - 0.5 min), 15% A (1.5 – 3.5 min), […]
# the CSI107 PROTAC with an exact mass of 1053 (g/mol).
# Table S1: Optimized parameters for the LC-MS/MS analysis. […]
# Detection protein degraders in mouse blood by LC-MS/MS analysis
# For the LC-MS/MS analysis of the PK study, sample preparation was performed as follows.
# Double Blank Blank + IS Standards
# 50 μL blood 50 μL blood 50 μL blood
# 10 μL ACN: H 2O 10 μL ACN: H 2O 10 μL std
# 300 μL of cold ACN were added in all samples for protein precipitation, followed by centrifugation at 13000 rpm for 10 min. The supernatant was transferred in glass tubes and evaporated at 55 °C for approximately 1 h. The samples were reconstituted in Mobile Phase A (90% H2O-10% ACN, 0.1% FA, 2 mM ammonium acetate) and the circulating amount of PROTAC was determined by LC-MS/MS analysis using a stable internal standard such as Warfarin or BETd-260 respectively. Gradient (20% A – 80% B) LC-MS/MS conditions were applied and the concentration range for the standard curve was 1 - 10.000 ng/mL. […]
# PC3 cells = assay: Cell viability (MTT) assay, PC3; type: cell-based, human; settings: Homo sapiens, PC-3, 72 h, read-out: IC50 (antiproliferative effect)
# Protocol: The antiproliferative activity of the synthesized compounds was tested in cell viability assays optimally set up for various cancer cell lines (results are depicted in Table 2, n = 3, average IC50 (μM) ± SD).
# Cells were plated at a density of 5 × 10^3 cells per well on 96-well plates. After 24 h of incubation (37 °C, 5% CO2), the cell medium was removed, and compounds were added at selected concentrations (0.1–100 μM), followed by incubation for 72 h. Control cells were treated with 0.4% DMSO medium to match the conditions in the wells where drugs were added. After 72 h, the medium was removed, and the 3-(4,5-dimethylthiazol-2-yl)-2,5-diphenyltetrazolium bromide (MTT) solution (0.3 mg/mL in PBS) was added to cells for 3 h under no light conditions. The MTT solution was removed, and the formazan crystals were dissolved in 100 μL of DMSO. The optical density was measured at 570 nm with a reference wavelength of 690 nm using an absorbance microplate reader (SpectraMax 190, Molecular Devices, Sunnyvale, CA, USA). The half-maximal inhibitory concentration (IC50) was calculated based on a four-parameter logistic equation, generating a cell viability curve, using GraphPad Prism 6.01 (GraphPad Software, Inc.). Two concentrations of an established drug, Docetaxel (100 nM and 1 nM), were used in each experiment as a positive control. The resulting absorbance values were used instead of IC50 calculation. Each point was the result of three independent experiments performed in triplicate.
SMILES,adverse effects during the study [1],level in blood circulation 24 h after treatment [1],AUCs [1],concentration at 8 h ([1]; ip),Cmax ([1]; ip),Tmax ([1]; ip) [h],half-life ([1]; ip) [h],Cmax ([1]; oral gavage (PO)) [ng/mL],IC50 (PC3 cells) [µM]
Cc1ncsc1-c1ccc(CNC(=O)[C@@H]2C[C@@H](O)CN2C(=O)[C@@H](NC(=O)CCC(=O)NCCCOc2ccc(-c3cc(C(F)(F)F)nn3C)c(O)c2-c2cc(C(F)(F)F)cc(C(F)(F)F)c2)C(C)(C)C)cc1 [CSI86],no adverse effects were reported,evident levels of the degrader being present in blood circulation,"8,4 h x μg/mL",~500 ng/mL and ~480 nM,713 ng/mL and 686 nM,2,7.4,< 100,18 ± 7
Cc1ncsc1-c1ccc(CNC(=O)[C@@H]2C[C@@H](O)CN2C(=O)[C@@H](NC(=O)CCCC(=O)NCCCOc2ccc(-c3cc(C(F)(F)F)nn3C)c(O)c2-c2cc(C(F)(F)F)cc(C(F)(F)F)c2)C(C)(C)C)cc1 [CSI107],no adverse effects were reported,evident levels of the degrader being present in blood circulation,"3,4 h x μg/mL",~150 ng/mL and ~140 nM,413 ng/mL and 392 nM,2,5 ± 0.5,,13 ± 7
Cc1ncsc1-c1ccc(CNC(=O)[C@@H]2C[C@@H](O)CN2C(=O)[C@@H](NC(=O)COCCOCC(=O)NCCCOc2ccc(-c3cc(C(F)(F)F)nn3C)c(O)c2-c2cc(C(F)(F)F)cc(C(F)(F)F)c2)C(C)(C)C)cc1 [CSI135],no adverse effects were reported,evident levels of the degrader being present in blood circulation,6 h x μg/mL,,699 ng/mL and 636 nM,2,7.6,,25 ± 2
